Key:
Assay type in all cases: cell-based
human TLR7 = biological target: T1, human TLR7 (Homo sapiens, UniProt Q9NYK1); test: TLR7 inhibition reporter assay (HEK-Blue SEAP); conditions: HEK-Blue cells overexpressing human TLR7, stimulated with gardiquimod 7.5 μM, 22 hour incubation
T1 construct: host or cells: HEK-Blue cells
T1 sequence (Q9NYK1 27-1049): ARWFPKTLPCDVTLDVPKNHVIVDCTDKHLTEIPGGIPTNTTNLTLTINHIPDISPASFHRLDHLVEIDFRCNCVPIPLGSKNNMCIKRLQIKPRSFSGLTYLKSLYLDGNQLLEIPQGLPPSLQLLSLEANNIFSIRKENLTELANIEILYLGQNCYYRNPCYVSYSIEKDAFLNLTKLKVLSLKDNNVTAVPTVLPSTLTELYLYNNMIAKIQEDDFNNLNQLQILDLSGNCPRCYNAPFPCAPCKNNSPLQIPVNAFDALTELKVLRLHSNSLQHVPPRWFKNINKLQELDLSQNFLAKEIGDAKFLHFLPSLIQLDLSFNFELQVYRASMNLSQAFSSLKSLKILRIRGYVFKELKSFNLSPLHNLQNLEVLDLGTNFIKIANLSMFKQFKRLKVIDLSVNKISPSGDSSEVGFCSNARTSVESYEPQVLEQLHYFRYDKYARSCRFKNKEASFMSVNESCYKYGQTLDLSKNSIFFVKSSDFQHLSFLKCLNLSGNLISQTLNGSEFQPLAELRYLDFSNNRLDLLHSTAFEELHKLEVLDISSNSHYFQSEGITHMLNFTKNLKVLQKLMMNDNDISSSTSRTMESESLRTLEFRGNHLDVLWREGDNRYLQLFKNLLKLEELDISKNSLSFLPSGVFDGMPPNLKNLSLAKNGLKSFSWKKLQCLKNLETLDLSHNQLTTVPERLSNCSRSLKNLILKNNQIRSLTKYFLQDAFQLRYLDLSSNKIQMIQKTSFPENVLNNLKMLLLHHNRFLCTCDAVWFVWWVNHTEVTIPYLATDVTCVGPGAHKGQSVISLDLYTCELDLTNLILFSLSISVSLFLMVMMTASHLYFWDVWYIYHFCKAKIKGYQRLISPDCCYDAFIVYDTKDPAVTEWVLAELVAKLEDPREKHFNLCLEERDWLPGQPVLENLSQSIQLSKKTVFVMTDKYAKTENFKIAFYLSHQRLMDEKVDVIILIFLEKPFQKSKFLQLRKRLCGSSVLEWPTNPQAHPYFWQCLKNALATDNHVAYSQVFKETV
How it was run: (§1)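 HEK-Blue cells with NF-κB/AP-1-driven SEAP reporter; compounds 0.05 nM-50 μM, 30 min pre-treatment at room temperature, then agonist: gardiquimod 7.5 μM (TLR7), R848 15.9 μM (TLR8) or ODN2006 5 nM (TLR9). SEAP read after 22 h at 37 °C; percent inhibition versus agonist-plus-DMSO and reference-inhibitor wells.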

human TLR8 = biological target: T2, human TLR8 (Homo sapiens, UniProt Q9NR97); test: TLR8 inhibition reporter assay (HEK-Blue SEAP); conditions: HEK-Blue cells overexpressing human TLR8, stimulated with R848 15.9 μM, 22 hour incubation
T2 construct: host or cells: HEK-Blue cells
T2 sequence (Q9NR97 27-1041): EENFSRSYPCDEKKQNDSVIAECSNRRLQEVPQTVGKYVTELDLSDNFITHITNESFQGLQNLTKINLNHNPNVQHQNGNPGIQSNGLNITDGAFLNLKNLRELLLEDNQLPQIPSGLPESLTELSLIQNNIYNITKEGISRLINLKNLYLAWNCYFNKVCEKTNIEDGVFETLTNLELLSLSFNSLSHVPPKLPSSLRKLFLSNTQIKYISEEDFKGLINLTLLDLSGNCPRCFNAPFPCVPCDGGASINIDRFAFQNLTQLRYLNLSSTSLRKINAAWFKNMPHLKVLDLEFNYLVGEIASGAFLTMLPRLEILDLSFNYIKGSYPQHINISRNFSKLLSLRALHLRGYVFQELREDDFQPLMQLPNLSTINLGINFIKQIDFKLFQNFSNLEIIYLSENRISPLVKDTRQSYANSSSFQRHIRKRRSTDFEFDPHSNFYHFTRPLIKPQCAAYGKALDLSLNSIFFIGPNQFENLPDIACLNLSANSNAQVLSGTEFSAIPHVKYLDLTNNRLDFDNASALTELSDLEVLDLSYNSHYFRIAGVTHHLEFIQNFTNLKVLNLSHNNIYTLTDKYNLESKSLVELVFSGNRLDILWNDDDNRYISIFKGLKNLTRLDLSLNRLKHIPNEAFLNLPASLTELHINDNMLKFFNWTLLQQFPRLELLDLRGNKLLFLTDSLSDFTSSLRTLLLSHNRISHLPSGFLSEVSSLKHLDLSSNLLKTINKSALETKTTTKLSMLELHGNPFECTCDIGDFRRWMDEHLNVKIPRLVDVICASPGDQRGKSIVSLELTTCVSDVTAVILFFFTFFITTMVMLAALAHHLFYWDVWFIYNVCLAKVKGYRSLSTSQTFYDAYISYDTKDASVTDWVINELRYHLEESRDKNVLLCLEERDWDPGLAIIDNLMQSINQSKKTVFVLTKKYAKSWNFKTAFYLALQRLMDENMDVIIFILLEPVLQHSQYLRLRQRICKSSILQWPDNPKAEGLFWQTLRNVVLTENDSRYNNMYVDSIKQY
How it was run: as §1

human TLR9 = biological target: T3, human TLR9 (Homo sapiens, UniProt Q9NR96); test: TLR9 inhibition reporter assay (HEK-Blue SEAP); conditions: HEK-Blue cells overexpressing human TLR9, stimulated with ODN2006 5 nM, 22 hour incubation
T3 construct: host or cells: HEK-Blue cells
T3 sequence (Q9NR96 26-1032): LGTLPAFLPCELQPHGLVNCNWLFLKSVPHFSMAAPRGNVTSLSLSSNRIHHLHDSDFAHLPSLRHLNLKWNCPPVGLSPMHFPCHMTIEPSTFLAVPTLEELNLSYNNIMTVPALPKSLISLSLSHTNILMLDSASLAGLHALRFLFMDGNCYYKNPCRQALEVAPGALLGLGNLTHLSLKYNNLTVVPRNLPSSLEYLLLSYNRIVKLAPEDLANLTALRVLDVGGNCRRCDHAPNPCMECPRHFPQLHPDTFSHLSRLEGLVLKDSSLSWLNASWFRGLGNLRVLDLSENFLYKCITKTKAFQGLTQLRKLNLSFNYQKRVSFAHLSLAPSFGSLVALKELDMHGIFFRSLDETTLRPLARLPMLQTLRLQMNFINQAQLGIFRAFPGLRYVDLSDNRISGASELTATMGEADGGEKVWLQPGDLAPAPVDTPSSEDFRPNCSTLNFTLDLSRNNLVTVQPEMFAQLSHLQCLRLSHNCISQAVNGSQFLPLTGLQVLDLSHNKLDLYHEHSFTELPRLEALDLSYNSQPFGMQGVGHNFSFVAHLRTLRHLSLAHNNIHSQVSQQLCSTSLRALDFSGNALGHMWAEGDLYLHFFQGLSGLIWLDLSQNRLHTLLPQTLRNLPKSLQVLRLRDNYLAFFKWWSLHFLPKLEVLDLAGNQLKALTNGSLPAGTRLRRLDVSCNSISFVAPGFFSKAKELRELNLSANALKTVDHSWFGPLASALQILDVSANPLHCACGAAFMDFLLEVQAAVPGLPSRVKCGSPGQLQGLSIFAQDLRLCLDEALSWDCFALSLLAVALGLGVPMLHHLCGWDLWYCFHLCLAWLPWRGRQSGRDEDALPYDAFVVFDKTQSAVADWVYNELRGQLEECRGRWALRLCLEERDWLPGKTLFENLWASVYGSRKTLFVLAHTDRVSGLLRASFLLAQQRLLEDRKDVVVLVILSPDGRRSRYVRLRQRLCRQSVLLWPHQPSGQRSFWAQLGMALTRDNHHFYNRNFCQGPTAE
How it was run: as §1

IC50 (human TLR7) [µM] | IC50 (human TLR8) [µM] | IC50 (human TLR9) [µM] | SMILES
0.0151 | 0.0064 | 0.884 | Cc1cc(-c2[nH]c3ccc(O[C@@H]4CCN(C)C4)cc3c2C(C)C)ccn1 [Example 193, (R)-3-isopropyl-2-(2-methylpyridin-4-yl)-5-((1-methylpyrrolidin-3-yl)oxy)-1H-indole]
0.0012 | 0.0057 | 3.44 | Cc1cc(-c2[nH]c3ccc(OCC4CCN(C)CC4)cc3c2C(C)C)cn2ncnc12 [Example 41, 6-(3-isopropyl-5-((1-methylpiperidin-4-yl)methoxy)-1H-indol-2-yl)-8-methyl-[1,2,4]triazolo[1,5-a]pyridine]
0.0013 | 0.0007 | 0.379 | Cc1cc(-c2[nH]c3ccc(OC4CCN(C)CC4)cc3c2C(C)C)cc(C)n1 [Example 29, 2-(2,6-dimethylpyridin-4-yl)-3-isopropyl-5-((1-methylpiperidin-4-yl)oxy)-1H-indole]
0.398 | 0.0187 | 2.06 | COc1ccc(-c2[nH]c3ccc(OCC(=O)N[C@@H]4CCCC[C@H]4N)cc3c2C(C)C)cc1OC [Example 130, N-((1R,2R)-2-aminocyclohexyl)-2-((2-(3,4-dimethoxyphenyl)-3-isopropyl-1H-indol-5-yl)oxy)acetamide]
0.006 | 0.0006 | 0.058 | Cc1cc(-c2[nH]c3ccc(OC4CCN(C5CCN(C(C)C)CC5)CC4)cc3c2C(C)C)ccn1 [Example 195, 3-isopropyl-5-((1′-isopropyl-[1,4′-bipiperidin]-4-yl)oxy)-2-(2-methylpyridin-4-yl)-1H-indole]
0.0021 | 0.0025 | 2.19 | CCCN1CCC(Oc2ccc3[nH]c(-c4cn5cnnc5c(C)c4C)c(C(C)C)c3c2)CC1 [Example 63, 6-(3-isopropyl-5-((1-propylpiperidin-4-yl)oxy)-1H-indol-2-yl)-7,8-dimethyl-[1,2,4]triazolo[4,3-a]pyridine]
0.0028 | 0.0008 | 5.57 | Cc1cc(-c2[nH]c3ccc(OC4CCN(CC(C)C)CC4)cc3c2C(C)C)cn(C)c1=O [Example 76, 5-(5-((1-isobutylpiperidin-4-yl)oxy)-3-isopropyl-1H-indol-2-yl)-1,3-dimethylpyridin-2(1H)-one]
0.105 | 0.0228 | 2.53 | CCc1c(-c2ccc(OC)c(OC)c2)[nH]c2ccc(OCC3CCNCC3)cc12 [Example 162, 2-(3,4-dimethoxyphenyl)-3-ethyl-5-(piperidin-4-ylmethoxy)-1H-indole]
1.03 | 0.0508 | 0.774 | CCc1c(-c2ccnc(C)c2)[nH]c2ccc(OCCN3CCCC3)cc12 [Example 192, 3-ethyl-2-(2-methylpyridin-4-yl)-5-(2-(pyrrolidin-1-yl)ethoxy)-H-indole]
0.0193 | 0.0026 | > 50 | Cc1c(-c2[nH]c3ccc(OCC4CCN(C5COC5)CC4)cc3c2C(C)C)cn(C)c(=O)c1C [Example 51, 5-(3-isopropyl-5-((1-(oxetan-3-yl)piperidin-4-yl)methoxy)-1H-indol-2-yl)-1,3,4-trimethylpyridin-2(1H)-one]
0.0025 | 0.0005 | 8.19 | Cc1cc(-c2[nH]c3ccc(OC4CCN(C5CCOCC5)CC4)cc3c2C(C)C)cn(C)c1=O [Example 39, 5-(3-isopropyl-5-((1-(tetrahydro-2H-pyran-4-yl)piperidin-4-yl)oxy)-1H-indol-2-yl)-1,3-dimethylpyridin-2(1H)-one]
0.0955 | 0.0469 | 2.66 | COc1ccc(-c2[nH]c3ccc(OCC(=O)N4CCC[C@H](N)C4)cc3c2C(C)C)cc1OC [Example 120, (S)-1-(3-aminopiperidin-1-yl)-2-((2-(3,4-dimethoxyphenyl)-3-isopropyl-1H-indol-5-yl)oxy)ethan-1-one]
0.001 | 0.0016 | 2.14 | Cc1cc(-c2[nH]c3ccc(OCCN4CCCC4)cc3c2C(C)C)cn2ncnc12 [Example 2, 6-(3-isopropyl-5-(2-(pyrrolidin-1-yl)ethoxy)-1H-indol-2-yl)-8-methyl-[1,2,4]triazolo[1,5-a]pyridine]
0.557 | 0.0197 | 0.861 | COc1ccc(-c2[nH]c3ccc(OCC(=O)NCC4(O)CCN(C)CC4)cc3c2C(C)C)cc1OC [Example 133, 2-((2-(3,4-dimethoxyphenyl)-3-isopropyl-1H-indol-5-yl)oxy)-N-((4-hydroxy-1-methylpiperidin-4-yl)methyl)acetamide]
0.0447 | 0.0021 | 1.54 | Cc1cc(-c2[nH]c3ccc(OCC4CCN(C)CC4)cc3c2C(C)C)ccn1 [Example 188, 3-isopropyl-5-((1-methylpiperidin-4-yl)methoxy)-2-(2-methylpyridin-4-yl)-1H-indole]
